Values of other authors in patent publication US20100048679A1, “POLYNUCLEOTIDE THERAPY” (Bayhill Therapeutics, Inc., priority 2006, published 2010).
Where two headings read alike, the source gives them in different places.

Test system: patients

Molecule: O=C1c2c(O)ccc(O)c2C(=O)c2c(NCCNCCO)ccc(NCCNCCO)c21 [mitoxantrone]
- Significant side effects (MS patients, literature): myelosuppression with increased risk for infections

Molecule: glatiramer acetate
- Significant side effects (in vivo): allergic reactions

Molecule: interferon β
- Significant side effects (MS patients, literature): flu-like symptoms

Molecule: natalizumab [Tysabri]
- Significant side effects (MS patients, literature): decreases lymphocyte trafficking
